For orientation: inhibition means the percentage by which the read-out fell short of the control. Low values mean a response near the control, high ones a response far below the control.

The test system of one assay is mice. The assay can be described thus: Porsolt's swim test (Behavioural Despair Test). It counts as in vivo. As to conditions: for Duration of immobility ± Standard Error of Mean: 30 minutes before the test, last 4 of 6 minutes. The procedure: The “Behavioural Despair Test” or “Porsolt's Forced Swim Test” is a validated animal model for depression (see T. Nagatsu, NeuroToxicology 2004, 25, 11-20, especially p. 16, right column in the middle, in combination with Porsolt et al., Arch. Int. Pharmacodyn. 1977, 229, 327-336). It responds to enhancement of the transmission of several neurotransmitters including serotonine, dopamine and noradrenaline.
The test, which detects antidepressant activity, was carried out as described by Porsolt et al. in Arch. Int. Pharmacodyn. 1977, 229, 327-336. Mice which are forced to swim in a situation from which they cannot escape rapidly become immobile. Antidepressants decrease the duration of immobility.
Mice were individually placed in a cylinder (Height=24 cm, Diameter=13 cm) containing 10 cm water (22° C.) from which they could not escape. The mice were placed in the water for 6 minutes and the duration of immobility during the last 4 minutes was measured.
10 mice were studied per each of the four groups. The test was performed blind, i.e. the person carrying out the experiment was different from the person injecting the mice and didn't thus know to which of the four groups each mouse belonged.
Obliquin was evaluated at 3 doses each: at 10, 30, and 80 mg/kg body weight, administered intraperitonally 30 minutes before the test, and compared with a control group. The thus administered obliquin was dissolved in a saline solution containing 3 weight-% DMSO and 3 weight-% Tween® 80 (so called “vehicle”). To the control group the vehicle consisting of the saline solution containing 3 weight-% DMSO and 3 weight-% Tween® 80 was administered intraperitonally.
Data were analyzed by comparing the treated groups with the control group using the unpaired Student's T tests and Analysis of Variance (ANOVA).

A further assay has as its target T1, MAO-A (Homo sapiens, UniProt P21397).
T1 construct: purchased Sigma M7316
T1 sequence (P21397 1-527): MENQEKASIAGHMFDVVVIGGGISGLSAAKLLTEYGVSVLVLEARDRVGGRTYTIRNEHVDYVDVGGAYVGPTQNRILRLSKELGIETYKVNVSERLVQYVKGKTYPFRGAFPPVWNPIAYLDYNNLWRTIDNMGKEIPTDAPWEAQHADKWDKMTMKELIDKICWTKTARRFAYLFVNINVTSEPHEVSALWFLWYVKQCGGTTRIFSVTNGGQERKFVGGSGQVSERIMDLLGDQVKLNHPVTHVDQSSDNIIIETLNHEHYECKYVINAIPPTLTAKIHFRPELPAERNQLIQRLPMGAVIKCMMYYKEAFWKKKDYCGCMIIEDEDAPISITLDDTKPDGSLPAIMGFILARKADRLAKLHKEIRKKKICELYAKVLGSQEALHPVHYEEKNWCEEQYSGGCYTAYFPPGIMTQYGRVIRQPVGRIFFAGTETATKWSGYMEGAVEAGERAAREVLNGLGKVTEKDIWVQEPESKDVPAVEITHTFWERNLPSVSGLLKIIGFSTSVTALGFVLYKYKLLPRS
The assay can be described thus: MAO-A inhibition, Amplex Red Monoamine Oxidase Assay Kit, colorimetric. As to conditions: substrate p-tyramine. It is filed as biochemical. The procedure: From a stock solution of 0.0405 g of racemic obliquin (92.5%; equal to 37.5 mg of pure compound) in 750 μl of dimethylsulfoxide (DMSO), working solutions were prepared with a concentration of obliquin of 4. 10^−4M in reaction buffer (0.05 M sodium phosphate, pH 7.4, 0.2% DMSO). The final concentrations of obliquin in the test system were 10^−4 M, 10^−5 M, 10^−6 M, 10^−7 M.
For determining the inhibition of monoaminoxidases' activity, the Amplex Red Monoamine Oxidase Assay Kit (Molecular Probes Nr._A-12214, Colorimetric version) was conducted according to manufacturers instructions.
As substrates for MAO-A enzyme (Sigma Nr. M7316) p-tyramine and as substrate for MAO-B enzyme (Sigma Nr. M7441) benzylamine were used. The concentration of MAO-A enzyme was 8 Units/ml, and that of MAO-B 4 Units/ml in the working solution.
MAO-A and MAO-B Assay, Colorimetric Version:
For the assay, 50 μl of each working solution (see above) were used. As control solution, the obliquin containing working solution was replaced by 50 μl of the reaction buffer.
50 μl of diluted MAO-A with a final concentration of 2 Units/ml and 50 μl of diluted MAO-B with a final concentration of 1 Unit/ml, respectively, were added.
100 μl of the Amplex solution containing horseradish peroxidase (2 U/ml) and the substrate tyramine (for MAO-A) or the substrate benzylamine (for MAO-B) were added.
To allow a subtraction of the background absorption a mixture of 100 μl of the Amplex solution and 100 μl of the reaction buffer was measured as a “blank”.
The samples were incubated at room temperature in the dark for 1 hour, and then the extinction at 535 nm determined in a Softmax Microplate photometer (Molecular Device).

In the case of `C=C(C)[C@H]1COc2cc3oc(=O)ccc3cc2O1` (racemic) [Obliquin, obliquin], the “Duration of immobility ± Standard Error of Mean” value in the assay with mice (mice, 10 mg/kg body weight i.p.) came out at 170.4 ± 11.1 s; with mice (mice, 30 mg/kg body weight i.p.) it was 150.9 ± 9.6 s; in the assay with mice (mice, 80 mg/kg body weight i.p., p < 0.01 vs control) it was 132.1 ± 10.5 s. The “Dose dependence of effect on immobility time” value in the assay with mice (mice, 10, 30, 80 mg/kg i.p., ANOVA p<0.05) is “significant dose dependent effect”. Also, the “Reduction of immobility time” value in the assay on mice (mice, highest dose group (80 mg/kg i.p.), vs control group) was 25%. For the same compound, the inhibition at 0.1 µM on MAO-A (obliquin 1 x 10^−7 M) was 2%. On MAO-A (obliquin 10 x 10^−7 M), this compound had an inhibition at 1 µM of 2%. Besides, testing at 10 µM against MAO-A (obliquin 100 x 10^−7 M) gave an inhibition of 6.5%. Moreover, the inhibition at 100 µM at MAO-A (obliquin 1000 x 10^−7 M) worked out at 24.1%.

For the origin of these results see patent publication US8044094B2, “Agents for preventing and treating disorders connected to impaired neurotransmission” (DSM IP Assets B.V., priority 2004, dated 2011).
